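Five compound concentrations were applied to cells in 96-well plates for 48 hours; endpoints were derived by simple linear interpolation of the resulting dose-response curve. The concentration for 50% growth inhibition is given as GI50. TGI: total growth inhibition.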
What was measured:
Assay in all cases: inhibition of tumour cell growth, NCI panel, 48 h
M14 melanoma = test system: M14 melanoma
MDA-MB-435 = test system: MDA-MB-435
CCRF-CEM leukemia = test system: CCRF-CEM leukemia
BT-549 breast = test system: BT-549 breast
SK-MEL-2 melanoma = test system: SK-MEL-2 melanoma
MDA-MB-231 breast = test system: MDA-MB-231 breast
KM12 colon = test system: KM12 colon
SF-295 CNS = test system: SF-295 CNS
MCF7 breast = test system: MCF7 breast
SW-620 colon = test system: SW-620 colon
SK-MEL-5 melanoma = test system: SK-MEL-5 melanoma
SR leukemia = test system: SR leukemia
HOP-92 NSCLC = test system: HOP-92 NSCLC
OVCAR-4 ovarian = test system: OVCAR-4 ovarian
RPMI-8226 leukemia = test system: RPMI-8226 leukemia
OVCAR-8 ovarian = test system: OVCAR-8 ovarian
NCI-H23 lung = test system: NCI-H23 lung
MALME-3M melanoma = test system: MALME-3M melanoma
UACC-257 melanoma = test system: UACC-257 melanoma
HCC-2998 colon = test system: HCC-2998 colon
SNB-75 CNS = test system: SNB-75 CNS
SF-539 CNS = test system: SF-539 CNS
MDA-MB-468 breast = test system: MDA-MB-468 breast
K-562 leukemia = test system: K-562 leukemia
LOX IMVI melanoma = test system: LOX IMVI melanoma
SK-OV-3 ovarian = test system: SK-OV-3 ovarian
SN12C renal = test system: SN12C renal
MOLT-4 leukemia = test system: MOLT-4 leukemia
HOP-62 NSCLC = test system: HOP-62 NSCLC
T-47D breast = test system: T-47D breast
HCT-15 colon = test system: HCT-15 colon
HL-60(TB) leukemia = test system: HL-60(TB) leukemia
NCI-H226 lung = test system: NCI-H226 lung
OVCAR-3 ovarian = test system: OVCAR-3 ovarian
NCI-H460 lung = test system: NCI-H460 lung
UO-31 renal = test system: UO-31 renal
SNB-19 CNS = test system: SNB-19 CNS
CAKI-1 renal = test system: CAKI-1 renal
786-0 renal = test system: 786-0 renal
RXF 393 renal = test system: RXF 393 renal
SF-268 CNS = test system: SF-268 CNS
A549 NSCLC = test system: A549 NSCLC
COLO 205 colon = test system: COLO 205 colon
UACC-62 melanoma = test system: UACC-62 melanoma
DU-145 prostate = test system: DU-145 prostate
EKVX NSCLC = test system: EKVX NSCLC
NCI/ADR-RES ovarian = test system: NCI/ADR-RES ovarian
TK-10 renal = test system: TK-10 renal
HS 578T breast = test system: HS 578T breast
ACHN renal = test system: ACHN renal
PC-3 prostate = test system: PC-3 prostate
NCI-H522 lung = test system: NCI-H522 lung
U251 CNS = test system: U251 CNS
HT29 colon = test system: HT29 colon
OVCAR-5 ovarian = test system: OVCAR-5 ovarian
SK-MEL-28 melanoma = test system: SK-MEL-28 melanoma
A498 renal = test system: A498 renal
IGROV1 ovarian = test system: IGROV1 ovarian

## CC(=O)Oc1ccccc1C(=O)Oc1ccc(C(=O)/C=C/c2ccncc2)cc1
M14 melanoma
  GI50: 14.5 µM
  TGI: > 100 µM
MDA-MB-435
  GI50: 4.45 µM
  TGI: 44.3 µM
CCRF-CEM leukemia
  GI50: 2.38 µM
  TGI: > 100 µM
BT-549 breast
  GI50: 17 µM
  TGI: 38.7 µM
SK-MEL-2 melanoma
  GI50: 32.5 µM
  TGI: > 100 µM
MDA-MB-231 breast
  GI50: 8.6 µM
  TGI: 36.2 µM
KM12 colon
  GI50: 3.57 µM
  TGI: 22.2 µM
SF-295 CNS
  GI50: 8.56 µM
  TGI: 58.1 µM
MCF7 breast
  GI50: 1.1 µM
  TGI: 9.24 µM
SW-620 colon
  GI50: 3.04 µM
  TGI: 18.9 µM
SK-MEL-5 melanoma
  GI50: 12.4 µM
  TGI: 29.5 µM
SR leukemia
  GI50: 0.407 µM
  TGI: > 100 µM
HOP-92 NSCLC
  GI50: 21.1 µM
  TGI: > 100 µM
OVCAR-4 ovarian
  GI50: 29.7 µM
  TGI: > 100 µM
RPMI-8226 leukemia
  GI50: 1.58 µM
  TGI: 7.19 µM
OVCAR-8 ovarian
  GI50: 24.9 µM
  TGI: > 100 µM
NCI-H23 lung
  GI50: 10.8 µM
  TGI: 30.8 µM
MALME-3M melanoma
  GI50: 16.5 µM
  TGI: 51.4 µM
UACC-257 melanoma
  GI50: 16.9 µM
  TGI: 63.4 µM
HCC-2998 colon
  GI50: 4.83 µM
  TGI: 16.4 µM
SNB-75 CNS
  GI50: 15.8 µM
  TGI: > 100 µM
SF-539 CNS
  GI50: 4.29 µM
  TGI: 17.4 µM
MDA-MB-468 breast
  GI50: 2.36 µM
  TGI: 8.34 µM
K-562 leukemia
  GI50: 2.29 µM
  TGI: > 100 µM
LOX IMVI melanoma
  GI50: 1.96 µM
  TGI: 5.87 µM
SK-OV-3 ovarian
  GI50: 30.9 µM
  TGI: > 100 µM
SN12C renal
  GI50: 10.1 µM
  TGI: 45.5 µM
MOLT-4 leukemia
  GI50: 15.9 µM
  TGI: 85.9 µM
HOP-62 NSCLC
  GI50: 27.5 µM
  TGI: > 100 µM
T-47D breast
  GI50: 23.8 µM
  TGI: 97.6 µM
HCT-15 colon
  GI50: 3.55 µM
  TGI: 18.8 µM
HL-60(TB) leukemia
  GI50: 4.93 µM
  TGI: 34.1 µM
NCI-H226 lung
  GI50: 26.4 µM
  TGI: > 100 µM
OVCAR-3 ovarian
  GI50: 5.3 µM
  TGI: 26 µM
NCI-H460 lung
  GI50: 11.2 µM
  TGI: 48.9 µM
UO-31 renal
  GI50: 10.3 µM
  TGI: 24 µM
SNB-19 CNS
  GI50: 15.3 µM
  TGI: 47.3 µM
CAKI-1 renal
  GI50: 19.3 µM
  TGI: > 100 µM
786-0 renal
  GI50: 16.1 µM
  TGI: > 100 µM
RXF 393 renal
  GI50: 5.25 µM
  TGI: 20.8 µM
SF-268 CNS
  GI50: 25 µM
  TGI: > 100 µM
A549 NSCLC
  GI50: 15.1 µM
  TGI: > 100 µM
COLO 205 colon
  GI50: 12.7 µM
  TGI: 40.5 µM
UACC-62 melanoma
  GI50: 16.6 µM
  TGI: 42.3 µM
DU-145 prostate
  GI50: 10.5 µM
  TGI: 44.1 µM
EKVX NSCLC
  GI50: 14.7 µM
  TGI: 45.7 µM
NCI/ADR-RES ovarian
  GI50: 20.7 µM
  TGI: > 100 µM
TK-10 renal
  GI50: 37.4 µM
  TGI: > 100 µM
HS 578T breast
  GI50: 22.5 µM
  TGI: > 100 µM
ACHN renal
  GI50: 15.6 µM
  TGI: 44.9 µM
PC-3 prostate
  GI50: 10.4 µM
  TGI: > 100 µM
NCI-H522 lung
  GI50: 4.85 µM
  TGI: 21.5 µM
U251 CNS
  GI50: 3.77 µM
  TGI: 70.8 µM
HT29 colon
  GI50: 3.6 µM
  TGI: 20.1 µM
OVCAR-5 ovarian
  GI50: 24.9 µM
  TGI: 99.1 µM
SK-MEL-28 melanoma
  GI50: 19.3 µM
  TGI: 62.1 µM
A498 renal
  GI50: 20.5 µM
  TGI: 71.4 µM
IGROV1 ovarian
  GI50: 7.4 µM
  TGI: 54 µM

From PubChem BioAssay (NCI)
